# Test results as given in patent US8198285B2, “Pyrazine derivatives” (Astrazeneca AB, priority 2010, dated 2012).
# Structures can show the parent of a compound that is named as a salt.
# What was measured:
# [1] = molecular target: PIM3 (Homo sapiens, UniProt Q86V86); assay: Inhibitory activity against PIM3; assay type: biochemical
# [2] = molecular target: T1, CYP3A4 (Homo sapiens, UniProt P08684); assay: CYP3A4 inhibition (midazolam oxidation to 1'-hydroxymidazolam); assay type: in vitro ADME; conditions: E. coli expressed 3A4 membranes, midazolam 2.5 μM; read-out: IC50 CYP3A4 (estimated)
# T1 construct: purchased Cypex (Dundee, UK); host or cells: E. coli (membranes)
# Method: The ability of certain compounds to inhibit CYP3A4 in membranes was determined from the inhibition of midazolam oxidation to 1′-hydroxy midazolam. […] Employing an automated assay (full IC50) using the Automation Platform, up to thirteen compounds were run per plate as well as ketoconazole as a standard inhibitor of CYP3A4.
# The incubations were carried out in 0.1 M phosphate buffer (pH 7.4 at 37° C.) containing DMSO (1%), midazolam (2.5 μM), phenacetin (25.7 μM), diclofenac (1.8 μM), S-mephenyloin (30.5 μM), bufuralol (8.8 μM), NADPH (1 mM), E. coli expressed 3A4 membranes (5 pmol/ml), 1A2 membranes (25 pmol/ml), 2C9 membranes (5 pmol/ml), 2C19 membranes (2.5 pmol/ml), 2D6 membranes (5 pmol/ml), and the test inhibitors ketoconazole, α-napthoflavone, sulphaphenazole, tranylcypromine and quinidine. […]
# The assay was run on a robotic sample processor. […] The samples were centrifuged, transferred to a clean plate and analysed by LC MS/MS, which was conducted using an Applied Biosystems-Sciex API4000 mass spectrometer, with Agilent HP1100 binary solvent delivery pumps, and CTC HTS-PAL autosampler. […] The formation of product (1′-hydroxymidazolam) was monitored. […]
# Rates of reaction were calculated for each reaction by measuring MS/MS area units. […]
# The degree of inhibition of CYP3A4 was calculated and expressed as an IC50 value. […]
# [3] = system: osteoclast-derived tartrate-resistant acid phosphatase form 5b (TRAcP-5b); assay: Bone biomarker evaluation: serum TRAcP-5b assay; assay type: in vivo, rat; conditions: oral once a day, 7 consecutive days, female CRL:CD rats
# Method: For in vitro osteogenesis, human adipose-derived stem cells (hADSC) (Invitrogen, UK; catalogue number R7788-115) were seeded into 12-well plates at a density of 5000 cells/cm^2 and were cultured in a basal media of phenol red-free Dulbecco's Modified Eagles Medium (DMEM; Sigma-Aldrich, UK; catalogue number D1145) supplemented with 5% fetal bovine serum (FBS, Gibco, UK; catalogue number 10270) and 2 mM GlutaMax® (Gibco; catalogue number 35050). […] The formation of mineralized bone nodules was assessed during the time-course using Alizarin Red S staining. […] The amount of mineralisation was quantified through the extraction of the Alizarin Red S stain from bone nodules using a cetylpyridinium chloride extraction method, previously described (Gregory et al., Analytical Biochemistry, 2004, 329: 77-84; Hwang et al., Stem Cells and Development 17: 963-970, 2008). […] Following incubation, 200 μl aliquots were transferred to 96-well format and the absorbance at 550 nm was determined using a microplate spectrophotometer (SpectraMax Plus, Molecular Devices, USA). Data were expressed as mean absorbance at 550 nm±Standard error of mean (SEM). […] Data are shown as mean absorbance at 550 nm and analysed using one-way ANOVA followed by Tukey's multiple comparison post hoc test: n=9; ***, P<0.001. […]
# T1 sequence (P08684 whole entry): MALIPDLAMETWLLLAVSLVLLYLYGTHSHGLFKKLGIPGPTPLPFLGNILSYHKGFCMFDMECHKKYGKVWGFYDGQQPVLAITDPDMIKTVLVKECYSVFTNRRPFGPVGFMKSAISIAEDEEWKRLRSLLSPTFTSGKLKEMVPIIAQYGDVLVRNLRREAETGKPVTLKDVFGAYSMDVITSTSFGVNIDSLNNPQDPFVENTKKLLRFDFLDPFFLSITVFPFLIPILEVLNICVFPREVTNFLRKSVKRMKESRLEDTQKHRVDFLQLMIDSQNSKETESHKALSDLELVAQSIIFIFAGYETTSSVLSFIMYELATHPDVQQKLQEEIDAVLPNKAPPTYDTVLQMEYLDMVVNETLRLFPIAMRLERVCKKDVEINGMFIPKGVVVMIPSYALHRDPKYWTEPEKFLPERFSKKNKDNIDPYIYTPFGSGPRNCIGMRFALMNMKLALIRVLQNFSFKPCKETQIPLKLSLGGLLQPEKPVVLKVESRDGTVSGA
smiles,measurement,setting,value
"COCCCNCCCc1ccc(-c2cnc(N)c(C(=O)Nc3cccnc3)n2)cc1 [Example 1, 3-Amino-6-(4-{3-[(3-methoxypropyl)amino]propyl}phenyl)-N-pyridin-3-ylpyrazine-2-carboxamide tri-hydrochloride]",Inhibitory activity against PIM3,[1],inhibitory activity
same,IC50,[2],> 50 µM
same,Serum TRAcP-5b levels (marker of bone resorption),[3],reduction in serum TRAcP-5b levels
